The results in this text go back to patent publication US20220267374A1, “IMMUNITY INDUCER AND PHARMACEUTICAL COMPOSITION FOR PREVENTING OR TREATING AGING-RELATED DISEASES” (priority 2019, published 2022).

Series [1] deals with aging-related acidic β-galactosidase (SA-β-gal). Nature of the series: SA-β-gal staining of adipose tissue. In kind it is in vivo, C57BL/6 mice. The following applies: HFD-fed mice, 16 weeks of age, s.c. vaccination at 8 weeks of age, vs control vaccine, FIGS. 2G, 2H. On the procedure: Aging-related acidic β-galactosidase (SA-β-gal) activity in adipose tissue was tested. Briefly, adipose tissue newly isolated from each Gpnmb-DTR mouse was incubated at 37° C. for 2 hours in a β-gal staining solution (containing 1 mg/ml of 5-bromo-4-chloro-3-indaryl β-D-galactopyranoside (X-gal), 5 mmol/L potassium ferrocyanide, 150 mmol/L of sodium chloride, 2 mmol/L of magnesium chloride, 0.01% of sodium deoxycholate, and 0.02% of nonidet-40). Then, the stained adipose tissue was captured (refer to FIG. 1C). SA-β-gal stainability was quantified by Image-J software (refer to FIG. 1D). […]
SA-β-gal staining was performed using the same method as in “3.” of Reference Example 1, except that adipose tissue collected from C57BL/6 mice (16 weeks of age) bred by feeding HFD from 4 weeks of age and administered with peptide vaccine 1 or a control vaccine by subcutaneous injection at a time point of 8 weeks of age was used. The SA-β-gal stainability was quantified by Image-J software (refer to FIG. 2H). […]

Series [2] has as its system replicative aging adipose precursor cells derived from C57BL/6 mice. Kind of series: ADCC (Antibody-Dependent-Cellular-Cytotoxicity) activity analysis. In kind it is cell-based. The following applies: purified IgG from mice administered with the vaccine; NK effector cells/target cells 1/1; LDH release, 4 hours; FIG. 2E. The method, then:
ADCC (Antibody-Dependent-Cellular-Cytotoxicity) was evaluated using a CytoTox 96 non-radioactive cytotoxicity assay kit (Promega). Specifically, natural killer (NK) cells were isolated from C57BL/6 mice as effector cells using Ficoll-Paque Plus (GE Healthcare) and EasySep mouse NK cell isolation kit (STEMCELL). Subsequently, as target cells, replicative aging adipose precursor cells derived from C57BL/6 mice were seeded on a 96-well plate so as to have 10^4 cells per well. Subsequently, purified IgG antibody obtained from C57BL/6 mice bred by feeding HFD from 4 weeks of age and administered with peptide vaccine 1 or a control vaccine by subcutaneous injection at a time point of 8 weeks of age was added to each well, and incubated at 37° C. for 30 minutes. After incubation, NK cells were seeded in each well so that a ratio of the cell number of effector cells to the target cells (effector cells/target cells) was 1/1. Subsequently, the plates were incubated at 37° C. for an additional 4 hours. Subsequently, lactate dehydrogenase released in a supernatant was detected using a microtiter plate reader (iMark microplate reader, Bio-Rad). To evaluate cell death, a ratio of lysed cells to the total number of cultured cells was calculated. In FIG. 2E, “Cont vac” is a C57BL/6 mouse administered with the control vaccine, and “Gpnmb vac” is a C57BL/6 mouse administered with peptide vaccine 1.
In general terms: LDH in the medium is a marker of cell lysis.

The nature of series [3]: Metabolic test (glucose tolerance test and insulin tolerance test). The conditions noted are these: HFD-fed mice, 16 weeks of age, s.c. vaccination at 8 weeks of age; compared to control vaccine; FIG. 2I. In kind it is in vivo, C57BL/6 mice. The method, then: Mice were bred individually from 1 week before the test. On the day of the glucose tolerance test (GTT), mice were fasted for 6 hours, followed by intraperitoneal injection of glucose at a dose of 1 g/kg (body weight) in the early afternoon. For the insulin tolerance test (ITT), mice were intraperitoneally administered with human insulin (1 U/kg (body weight)). After administration of glucose or insulin, tail venous blood was collected 0, 15, 30, 60 and 120 minutes later, and the blood glucose level was measured with a glucose analyzer (Sanwa Chemical Research Institute).
A metabolic test was performed using the same method as in “5.” of Reference Example 1, except that C57BL/6 mice (16 weeks of age) bred by feeding HFD from 4 weeks of age and administered with peptide vaccine 1, peptide vaccine 2, or control vaccine by subcutaneous injection at a time point of 8 weeks of age were used. In FIG. 2I, “Cont vaccine” is a C57BL/6 mouse administered with a control vaccine, “Gpnmb vaccine 1” is a C57BL/6 mouse administered with peptide vaccine 1, and “Gpnmb vaccine 2” is a C57BL/6 mouse administered with peptide vaccine 2.

Ends that are not written are not given here.

As to “RRGDGRWKD (also: KLH conjugate; listed as Mus musculus) [peptide vaccine 1, peptide of positions 63 to 71 of mouse GPNMB protein]”, in series [1], the SA-β-gal activity entry is “decrease”. For the same sequence, the “antibody-dependent cellular cytotoxicity (ADCC activity)” value in series [2] was “exhibits antibody-dependent cellular cytotoxicity (ADCC activity)”. For the same sequence, the “metabolic abnormality induced by HFD intake (glucose tolerance test and insulin tolerance test)” value in series [3] was “significantly improved”.
